Data from PMC12090182, “Repurposing of the RIPK1-Selective Benzo[1,4]oxazepin-4-one Scaffold for the Development of a Type III LIMK1/2 Inhibitor” (ACS Chemical Biology, 2025).

Experiments:
Test in all cases: biochemical
Format in all cases: binding
[1] = molecular target: 468 kinases including some pathogenic mutants (Homo sapiens, UniProt Q04759); settings: PRKCQ (Entrez PRKCQ), 100 nM; read-out: Percent Control
[2] = molecular target: 468 kinases including some pathogenic mutants (Homo sapiens, UniProt O95835); settings: LATS1 (Entrez LATS1), 100 nM; read-out: Percent Control
[3] = molecular target: 468 kinases including some pathogenic mutants (Homo sapiens, UniProt O00329); settings: PIK3CD (Entrez PIK3CD), 100 nM; read-out: Percent Control
[4] = molecular target: 468 kinases including some pathogenic mutants (Homo sapiens, UniProt P08581, M1250T); settings: read-out: Percent Control
[5] = molecular target: 468 kinases including some pathogenic mutants (Homo sapiens, UniProt Q86Y07); settings: VRK2 (Entrez VRK2), 1000 nM; read-out: Percent Control
[6] = molecular target: 468 kinases including some pathogenic mutants (Homo sapiens, UniProt Q9Y6R4); settings: MAP3K4 (Entrez MAP3K4), 100 nM; read-out: Percent Control
[7] = molecular target: 468 kinases including some pathogenic mutants (Homo sapiens, UniProt P09619); settings: PDGFRB (Entrez PDGFRB), 100 nM; read-out: Percent Control
[8] = molecular target: 468 kinases including some pathogenic mutants (Homo sapiens, UniProt P49137); settings: MAPKAPK2 (Entrez MAPKAPK2), 100 nM; read-out: Percent Control
[9] = molecular target: 468 kinases including some pathogenic mutants (Homo sapiens, UniProt Q6P2M8); settings: CAMK1B (Entrez PNCK), 100 nM; read-out: Percent Control
[10] = molecular target: 468 kinases including some pathogenic mutants (Homo sapiens, UniProt Q12851); settings: MAP4K2 (Entrez MAP4K2), 100 nM; read-out: Percent Control
[11] = molecular target: 468 kinases including some pathogenic mutants (Homo sapiens, UniProt Q9NY57); settings: YANK2 (Entrez STK32B), 1000 nM; read-out: Percent Control
[12] = molecular target: 468 kinases including some pathogenic mutants (Homo sapiens, UniProt P08631); settings: HCK (Entrez HCK), 100 nM; read-out: Percent Control
[13] = molecular target: 468 kinases including some pathogenic mutants (Homo sapiens, UniProt P00519, T315I); settings: read-out: Percent Control
[14] = molecular target: 468 kinases including some pathogenic mutants (Homo sapiens, UniProt Q13163); settings: MEK5 (Entrez MAP2K5), 100 nM; read-out: Percent Control
[15] = molecular target: 468 kinases including some pathogenic mutants (Homo sapiens, UniProt P16234); settings: PDGFRA (Entrez PDGFRA), 100 nM; read-out: Percent Control
[16] = molecular target: 468 kinases including some pathogenic mutants (Homo sapiens, UniProt Q00526); settings: CDK3 (Entrez CDK3), 100 nM; read-out: Percent Control
[17] = molecular target: 468 kinases including some pathogenic mutants (Homo sapiens, UniProt Q99755); settings: PIP5K1A (Entrez PIP5K1A), 100 nM; read-out: Percent Control
[18] = molecular target: 468 kinases including some pathogenic mutants (Homo sapiens, UniProt P32298); settings: GRK4 (Entrez GRK4), 100 nM; read-out: Percent Control
[19] = molecular target: 468 kinases including some pathogenic mutants (Homo sapiens, UniProt P17612); settings: PKAC-alpha (Entrez PRKACA), 1000 nM; read-out: Percent Control
[20] = molecular target: 468 kinases including some pathogenic mutants (Homo sapiens, UniProt Q9UEW8); settings: STK39 (Entrez STK39), 100 nM; read-out: Percent Control
[21] = molecular target: 468 kinases including some pathogenic mutants (Homo sapiens, UniProt P37173); settings: TGFBR2 (Entrez TGFBR2), 1000 nM; read-out: Percent Control
[22] = molecular target: 468 kinases including some pathogenic mutants (Homo sapiens, UniProt P28482); settings: ERK2 (Entrez MAPK1), 100 nM; read-out: Percent Control
[23] = molecular target: 468 kinases including some pathogenic mutants (Homo sapiens, UniProt Q9UQM7); settings: CAMK2A (Entrez CAMK2A), 100 nM; read-out: Percent Control
[24] = molecular target: 468 kinases including some pathogenic mutants (Homo sapiens, UniProt Q9BVS4); settings: RIOK2 (Entrez RIOK2), 1000 nM; read-out: Percent Control
[25] = molecular target: 468 kinases including some pathogenic mutants (Homo sapiens, UniProt P15735); settings: PHKG2 (Entrez PHKG2), 100 nM; read-out: Percent Control
[26] = molecular target: 468 kinases including some pathogenic mutants (Homo sapiens, UniProt Q56UN5); settings: YSK4 (Entrez MAP3K19), 1000 nM; read-out: Percent Control
[27] = molecular target: 468 kinases including some pathogenic mutants (Homo sapiens, UniProt Q96Q40); settings: PFTAIRE2 (Entrez CDK15), 100 nM; read-out: Percent Control
[28] = molecular target: 468 kinases including some pathogenic mutants (Homo sapiens, UniProt P29323); settings: EPHB2 (Entrez EPHB2), 100 nM; read-out: Percent Control
468 kinases including some pathogenic mutants (Homo sapiens, UniProt P29323), sequence (P29323 19-1055, change not shown): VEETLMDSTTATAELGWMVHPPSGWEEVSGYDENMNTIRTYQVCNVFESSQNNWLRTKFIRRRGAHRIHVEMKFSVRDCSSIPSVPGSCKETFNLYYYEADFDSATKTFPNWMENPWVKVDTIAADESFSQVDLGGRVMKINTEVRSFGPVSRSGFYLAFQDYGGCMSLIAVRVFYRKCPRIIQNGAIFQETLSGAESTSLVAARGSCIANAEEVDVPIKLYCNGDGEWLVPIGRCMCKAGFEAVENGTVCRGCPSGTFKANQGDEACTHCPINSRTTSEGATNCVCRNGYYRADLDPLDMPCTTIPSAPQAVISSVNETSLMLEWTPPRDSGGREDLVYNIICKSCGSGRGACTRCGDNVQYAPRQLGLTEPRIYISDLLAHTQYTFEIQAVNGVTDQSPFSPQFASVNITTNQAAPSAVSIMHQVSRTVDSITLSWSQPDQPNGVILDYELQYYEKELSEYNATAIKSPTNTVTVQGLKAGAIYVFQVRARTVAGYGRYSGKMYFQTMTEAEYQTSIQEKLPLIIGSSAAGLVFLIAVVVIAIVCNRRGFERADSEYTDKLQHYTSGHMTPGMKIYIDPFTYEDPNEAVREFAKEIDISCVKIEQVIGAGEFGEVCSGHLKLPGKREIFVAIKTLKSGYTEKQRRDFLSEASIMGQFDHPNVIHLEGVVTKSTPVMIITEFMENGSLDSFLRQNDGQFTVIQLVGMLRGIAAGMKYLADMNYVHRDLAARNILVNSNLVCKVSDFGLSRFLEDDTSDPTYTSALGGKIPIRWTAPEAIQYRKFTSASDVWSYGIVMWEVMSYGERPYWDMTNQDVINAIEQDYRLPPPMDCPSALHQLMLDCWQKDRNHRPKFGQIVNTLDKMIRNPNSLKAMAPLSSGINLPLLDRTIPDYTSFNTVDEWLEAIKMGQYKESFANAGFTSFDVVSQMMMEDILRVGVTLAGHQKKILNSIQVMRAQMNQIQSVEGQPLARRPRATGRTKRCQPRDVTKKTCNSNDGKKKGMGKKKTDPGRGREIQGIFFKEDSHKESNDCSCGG

468 kinases including some pathogenic mutants (Homo sapiens, UniProt P09619), sequence (P09619 33-1106, change not shown): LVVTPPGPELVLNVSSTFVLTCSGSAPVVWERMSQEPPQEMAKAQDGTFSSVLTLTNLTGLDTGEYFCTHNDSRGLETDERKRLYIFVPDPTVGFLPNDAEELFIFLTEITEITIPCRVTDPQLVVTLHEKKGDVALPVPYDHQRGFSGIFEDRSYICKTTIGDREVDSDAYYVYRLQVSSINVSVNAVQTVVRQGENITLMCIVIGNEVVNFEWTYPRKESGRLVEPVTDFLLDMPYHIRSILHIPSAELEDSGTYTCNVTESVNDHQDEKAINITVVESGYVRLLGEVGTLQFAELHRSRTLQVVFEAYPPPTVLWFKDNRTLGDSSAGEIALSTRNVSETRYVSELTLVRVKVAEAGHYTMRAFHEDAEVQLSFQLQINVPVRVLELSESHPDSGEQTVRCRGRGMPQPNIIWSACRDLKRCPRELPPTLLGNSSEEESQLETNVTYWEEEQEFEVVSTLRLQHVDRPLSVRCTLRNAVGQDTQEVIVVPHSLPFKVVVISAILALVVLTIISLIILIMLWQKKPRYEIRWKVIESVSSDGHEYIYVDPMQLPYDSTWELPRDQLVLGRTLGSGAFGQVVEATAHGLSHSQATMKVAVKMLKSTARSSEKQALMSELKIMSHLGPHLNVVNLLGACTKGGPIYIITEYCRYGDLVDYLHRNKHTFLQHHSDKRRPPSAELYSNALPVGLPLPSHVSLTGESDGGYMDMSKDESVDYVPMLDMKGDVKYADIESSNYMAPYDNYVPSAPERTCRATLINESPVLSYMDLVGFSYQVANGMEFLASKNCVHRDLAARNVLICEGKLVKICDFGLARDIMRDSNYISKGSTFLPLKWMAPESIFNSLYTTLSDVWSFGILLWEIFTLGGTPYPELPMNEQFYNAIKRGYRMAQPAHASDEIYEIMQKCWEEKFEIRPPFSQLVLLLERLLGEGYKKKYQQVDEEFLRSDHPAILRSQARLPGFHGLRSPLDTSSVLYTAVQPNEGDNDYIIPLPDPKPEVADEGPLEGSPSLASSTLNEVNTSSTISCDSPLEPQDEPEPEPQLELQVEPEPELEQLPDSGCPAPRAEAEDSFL
468 kinases including some pathogenic mutants (Homo sapiens, UniProt Q9BVS4), sequence (Q9BVS4 whole entry, change not shown): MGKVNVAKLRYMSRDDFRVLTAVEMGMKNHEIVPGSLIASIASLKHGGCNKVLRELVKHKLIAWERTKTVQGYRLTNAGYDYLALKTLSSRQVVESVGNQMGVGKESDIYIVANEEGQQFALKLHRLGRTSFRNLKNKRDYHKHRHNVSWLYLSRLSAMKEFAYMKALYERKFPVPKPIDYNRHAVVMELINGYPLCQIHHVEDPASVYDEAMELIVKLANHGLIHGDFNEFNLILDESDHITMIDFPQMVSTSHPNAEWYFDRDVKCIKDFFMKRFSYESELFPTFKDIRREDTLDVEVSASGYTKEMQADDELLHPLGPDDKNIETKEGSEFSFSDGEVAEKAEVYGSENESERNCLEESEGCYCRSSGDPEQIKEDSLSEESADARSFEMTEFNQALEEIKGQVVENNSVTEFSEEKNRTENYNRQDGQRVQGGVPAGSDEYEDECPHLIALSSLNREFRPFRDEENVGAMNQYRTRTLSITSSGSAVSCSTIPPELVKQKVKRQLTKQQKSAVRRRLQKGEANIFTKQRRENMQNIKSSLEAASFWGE
468 kinases including some pathogenic mutants (Homo sapiens, UniProt O95835), sequence (O95835 whole entry, change not shown): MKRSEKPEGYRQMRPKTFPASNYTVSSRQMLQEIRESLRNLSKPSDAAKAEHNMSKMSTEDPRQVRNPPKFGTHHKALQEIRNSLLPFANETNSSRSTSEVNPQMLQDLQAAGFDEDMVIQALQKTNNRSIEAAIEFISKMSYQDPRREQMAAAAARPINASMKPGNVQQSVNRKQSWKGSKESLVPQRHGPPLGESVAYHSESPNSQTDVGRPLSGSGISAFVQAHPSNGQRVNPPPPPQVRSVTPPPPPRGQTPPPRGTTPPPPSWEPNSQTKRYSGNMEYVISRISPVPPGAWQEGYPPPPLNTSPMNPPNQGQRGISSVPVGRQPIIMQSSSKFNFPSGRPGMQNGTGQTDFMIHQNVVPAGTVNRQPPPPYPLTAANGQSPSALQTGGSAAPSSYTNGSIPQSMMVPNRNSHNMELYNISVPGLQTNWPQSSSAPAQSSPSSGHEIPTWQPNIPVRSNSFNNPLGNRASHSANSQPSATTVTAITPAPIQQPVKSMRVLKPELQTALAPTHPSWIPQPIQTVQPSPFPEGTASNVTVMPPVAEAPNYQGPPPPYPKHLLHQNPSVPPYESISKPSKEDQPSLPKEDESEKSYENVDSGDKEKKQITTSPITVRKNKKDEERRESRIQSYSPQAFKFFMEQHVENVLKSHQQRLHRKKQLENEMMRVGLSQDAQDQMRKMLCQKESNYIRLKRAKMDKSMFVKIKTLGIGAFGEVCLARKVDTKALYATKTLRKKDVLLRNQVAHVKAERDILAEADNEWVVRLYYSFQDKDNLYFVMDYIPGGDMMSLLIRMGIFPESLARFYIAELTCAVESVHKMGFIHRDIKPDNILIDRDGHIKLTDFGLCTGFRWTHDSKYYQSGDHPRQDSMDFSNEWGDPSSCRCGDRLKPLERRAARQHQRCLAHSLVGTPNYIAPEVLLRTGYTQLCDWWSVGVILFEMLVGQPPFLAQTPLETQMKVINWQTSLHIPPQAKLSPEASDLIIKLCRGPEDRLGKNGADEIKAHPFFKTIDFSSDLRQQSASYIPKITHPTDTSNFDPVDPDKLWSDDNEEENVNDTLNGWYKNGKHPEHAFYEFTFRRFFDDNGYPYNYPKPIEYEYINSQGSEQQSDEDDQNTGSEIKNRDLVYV
468 kinases including some pathogenic mutants (Homo sapiens, UniProt Q9NY57), sequence (Q9NY57 whole entry, change not shown): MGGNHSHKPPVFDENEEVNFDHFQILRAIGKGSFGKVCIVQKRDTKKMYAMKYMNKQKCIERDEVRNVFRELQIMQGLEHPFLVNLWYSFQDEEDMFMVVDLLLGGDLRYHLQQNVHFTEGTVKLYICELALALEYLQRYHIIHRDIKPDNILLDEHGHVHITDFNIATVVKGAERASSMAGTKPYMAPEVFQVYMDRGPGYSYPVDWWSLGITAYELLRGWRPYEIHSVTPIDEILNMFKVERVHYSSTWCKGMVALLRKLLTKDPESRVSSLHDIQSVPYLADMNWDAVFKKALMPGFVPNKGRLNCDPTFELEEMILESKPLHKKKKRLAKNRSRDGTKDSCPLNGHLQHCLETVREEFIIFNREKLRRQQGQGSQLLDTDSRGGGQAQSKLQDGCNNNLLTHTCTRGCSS
468 kinases including some pathogenic mutants (Homo sapiens, UniProt Q13163), sequence (Q13163 whole entry, change not shown): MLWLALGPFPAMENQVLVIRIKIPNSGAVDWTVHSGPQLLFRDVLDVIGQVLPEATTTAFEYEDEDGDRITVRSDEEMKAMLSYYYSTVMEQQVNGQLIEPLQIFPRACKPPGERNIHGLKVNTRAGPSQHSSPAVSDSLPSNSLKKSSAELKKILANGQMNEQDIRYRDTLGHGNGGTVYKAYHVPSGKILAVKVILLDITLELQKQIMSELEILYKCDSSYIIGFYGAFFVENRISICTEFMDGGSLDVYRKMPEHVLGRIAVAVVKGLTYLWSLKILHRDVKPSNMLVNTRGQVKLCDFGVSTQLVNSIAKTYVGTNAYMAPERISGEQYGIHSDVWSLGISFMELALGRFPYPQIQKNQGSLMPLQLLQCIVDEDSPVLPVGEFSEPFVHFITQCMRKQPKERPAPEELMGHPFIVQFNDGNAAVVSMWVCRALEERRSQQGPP
468 kinases including some pathogenic mutants (Homo sapiens, UniProt P49137), sequence (P49137 whole entry, change not shown): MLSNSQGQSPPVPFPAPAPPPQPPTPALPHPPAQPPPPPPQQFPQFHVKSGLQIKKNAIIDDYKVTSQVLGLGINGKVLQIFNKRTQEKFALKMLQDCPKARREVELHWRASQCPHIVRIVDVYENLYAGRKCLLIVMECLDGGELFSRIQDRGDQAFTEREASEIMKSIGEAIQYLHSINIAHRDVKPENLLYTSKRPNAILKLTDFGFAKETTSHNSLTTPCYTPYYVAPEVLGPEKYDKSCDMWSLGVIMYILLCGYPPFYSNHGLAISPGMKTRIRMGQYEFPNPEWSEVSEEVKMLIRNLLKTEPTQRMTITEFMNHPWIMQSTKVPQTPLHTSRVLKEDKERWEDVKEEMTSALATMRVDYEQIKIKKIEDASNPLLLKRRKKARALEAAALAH

Work on CN1C(=O)[C@@H](N2CCc3c(nn(Cc4ccccc4)c3C(N)=O)C2=O)COc2cc(Cl)ccc21 [Compound 10, (S)-2-benzyl-6-(8-chloro-5-methyl-4-oxo-2,3,4,5-tetrahydrobenzo[b][1,4]oxazepin-3-yl)-7-oxo-4,5,6,7-tetrahydro-2H-pyrazolo[3,4-c]pyridine-3-carboxamide] yielded a remaining activity at 0.1 µM [1] of 88%, a remaining activity at 0.1 µM [2] of 62% and a remaining activity at 0.1 µM [3] of 60%. For the same molecule, the remaining activity at 0.1 µM [4] was 80%, the remaining activity at 1 µM [5] was 100% and the remaining activity at 0.1 µM [6] was 79%. The remaining activity at 0.1 µM [7] was 69%, the remaining activity at 0.1 µM [8] was 53% and the remaining activity at 0.1 µM [9] was 79%. The remaining activity at 0.1 µM [10] was 70%, the remaining activity at 1 µM [11] was 100% and the remaining activity at 0.1 µM [12] was 61%. For the same molecule, the remaining activity at 0.1 µM [13] was 100%, the remaining activity at 0.1 µM [14] was 89% and the remaining activity at 0.1 µM [15] was 89%. For the same molecule, the remaining activity at 0.1 µM [16] was 80%, the remaining activity at 0.1 µM [17] was 100% and the remaining activity at 0.1 µM [18] was 82%. The remaining activity at 1 µM [19] was 100%, the remaining activity at 0.1 µM [20] was 67% and the remaining activity at 1 µM [21] was 100%. It also gave a remaining activity at 0.1 µM [22] of 77%, a remaining activity at 0.1 µM [23] of 76% and a remaining activity at 1 µM [24] of 100%. It also gave a remaining activity at 0.1 µM [25] of 62%, a remaining activity at 1 µM [26] of 100% and a remaining activity at 0.1 µM [27] of 82%. For the same molecule, the remaining activity at 0.1 µM [28] was 98%.
